For two compounds, EC50 results are on record in ChEMBL document CHEMBL3886917, “Benzimidazole-imidazole derivatives” (2016).

Assay [1] in a line: Transient Transfection Assay: In a transient set-up, a Huh-7 lunet hepatoma cell line was transiently transfected with an autonomously replicating RNA encoding a bi-cistronic expression construct. This construct comprises a firefly luciferase reporter gene preceding the NS3-NS5B subgenomic region of HCV (genotype 1a H77 or 1b Con1). Translation of the HCV subgenomic region is mediated by an internal ribosome entry site of encephalomyocarditis virus. The construct is furthermore flanked by 5' and 3' untranslated regions of HCV (genotype 1a H77 or 1b Con 1, respectively), which allow for replication of the RNA. In addition to the wild-type constructs, site-directed mutations were introduced into the transient HCV genotype 1b replicon in the gene encoding for the non-structural protein 5A (NS5A). More precisely, amino acid residues 28, 30, 31 and 93 in NS5A were independently altered. Cells were plated in 384 well plates in the presence of test and control compounds, which were added in various concentrations. Following an incubation of two days, replication of the HCV subgenomic replicon RNA was measured by assaying luciferase activity (using standard luciferase assay substrates and reagents and a Perkin Elmer ViewLux™ ultraHTS microplate imager). Type of assay: cell-based. (In general: Reporter assays use an easily measured gene product as a stand-in for the process of interest.)

Assay [2] in a line: Stable Transfection Assay: The assay utilized the stably transfected cell line Huh-7 luc/neo (hereafter referred to as Huh-Luc). This cell line harbors an RNA encoding a bicistronic expression construct comprising the wild type NS3-NS5B regions of HCV type 1b translated from an Internal Ribosome Entry Site (IRES) from encephalomyocarditis virus (EMCV), preceded by a reporter portion (FfL-luciferase), and a selectable marker portion (neoR, neomycine phosphotransferase). The construct is flanked by 5' and 3' NTRs (non-translated regions) from HCV type 1b. Continued culture of the replicon cells in the presence of G418 (neoR) is dependent on the replication of the HCV RNA. The stably transfected replicon cells that replicate HCV RNA autonomously and to high levels, encoding inter alia luciferase, were used for screening the antiviral compounds. A general note: Replicon systems follow genome replication, usually without infectious particles.

Each structure is given as a SMILES string.

As for `COC(=O)N[C@H](C(=O)N1CCC[C@H]1c1ncc(-c2ccc3cc(-c4ccc5nc([C@@H]6CCCN6C(=O)[C@@H](NC(=O)OC)[C@@H](C)OC)[nH]c5c4)ccc3c2)[nH]1)C(C)C`, the EC50 in assay [1] is 7 pM.

Consider `COC(=O)N[C@H](C(=O)N1CCC[C@H]1c1nc2ccc(-c3ccc4cc(-c5cnc([C@@H]6CCCN6C(=O)[C@@H](NC(=O)OC)[C@@H](C)OC)[nH]5)ccc4c3)cc2[nH]1)C(C)C`, for which the EC50 in assay [2] was 6 pM.

A word on the EC50: it is the concentration giving half of the maximal effect.
